Measured values taken from EP4606800A1, “COMPOUND BASED ON ORYDALMINE STRUCTURE AND USE THEREOF” (Beijing Tide Pharmaceutical Co., Ltd., priority 2022, dated 2024).

What was measured:
[1] = tested on: Acetic Acid-induced Writhing Model; test: Analgesia test in acetic acid-induced writhing model (oral gavage); type: in vivo; conditions: CD-1 mice, n=5, mean ± standard error, single oral gavage; for Number of Writhing 5-15 min: 5-15 min after injection of 0.6% glacial acetic acid, acetic acid 2h after administration (Fentanyl intravenous, 10 min after). Dose mg/kg: Fentanyl 0.008, A10-0 18.0, A3 30.0, A10 30.1, A14 30.6, A15 20.6, A17 18.7, A18 32.3, A21 31.8, A22 22.3, A7 40.7, A19 18.4, A23 28.4, A44 32.0, A24 25.5, A53 26.9, A40 34.5, A55 40.5, A57 26.7, A4 30; for Number of Writhing 15-30 min: 15-30 min after injection of 0.6% glacial acetic acid, acetic acid 2h after administration (Fentanyl intravenous, 10 min after). Dose mg/kg: Fentanyl 0.008, A10-0 18.0, A3 30.0, A10 30.1, A14 30.6, A15 20.6, A17 18.7, A18 32.3, A21 31.8, A22 22.3, A7 40.7, A19 18.4, A23 28.4, A44 32.0, A24 25.5, A53 26.9, A40 34.5, A55 40.5, A57 26.7, A4 3; for Time to start writhing: 0.6% glacial acetic acid 2h after administration (Fentanyl intravenous, 10 min after). Dose mg/kg: Fentanyl 0.008, A10-0 18.0, A3 30.0, A10 30.1, A14 30.6, A15 20.6, A17 18.7, A18 32.3, A21 31.8, A22 22.3, A7 40.7, A19 18.4, A23 28.4, A44 32.0, A24 25.5, A53 26.9, A40 34.5, A55 40.5, A57 26.7, A4 30.0; for Number of Writhing Total: total of 5-15 min and 15-30 min after injection of 0.6% glacial acetic acid, acetic acid 2h after administration (Fentanyl intravenous, 10 min after). Dose mg/kg: Fentanyl 0.008, A10-0 18.0, A3 30.0, A10 30.1, A14 30.6, A15 20.6, A17 18.7, A18 32.3, A21 31.8, A22 22.3, A7 40.7, A19 18.4, A23 28.4, A44 32.0, A24 25.5, A53 26.9, A40 34.5, A5
[2] = tested on: inflammatory pain model induced by complete Freund's adjuvant in mice; test: Mechanical pain test of inflammatory pain model induced by complete Freund's adjuvant in mice; type: in vivo, mice (C57BL/6J); conditions: C57BL/6J male mice, n=4; tested 0.5h, 2h, 8h, 24h after first administration; Morphine 2 mg/kg subcutaneous; A10-0 5 mg/kg and A3 8.4 mg/kg oral gavage at intervals of 8h

SMILES	Number of Writhing 5-15 min [1]	Number of Writhing 15-30 min [1]	Time to start writhing [1] [s]	Number of Writhing Total [1]	analgesic effect on the inflammatory pain model in mice (mechanical pain threshold, Fig. 1) [2]	effect of reducing the sole-swelling degree in mice (plantar thickness, Fig. 2) [2]
COc1cc2c(cc1OC)[C@@H]1Cc3ccc(OC(=O)[C@@H](C)c4ccc(-c5ccccc5)c(F)c4)c(OC)c3CN1CC2 [Compound A4]	14±14	12±14	154 ± 151	26±27	–	–
COc1cc2c(cc1OC)[C@@H]1Cc3ccc(O)c(OC)c3CN1CC2 [Compound A10-0, Corydalmine]	4±3	5±3	545 ± 221	9±2	did not have a significant analgesic effect on the inflammatory pain model in mice	had an effect of reducing the sole-welling degree in mice, but the effect was maintained for a short time
CN1CC[C@]23c4c5ccc(O)c4O[C@H]2[C@@H](O)C=C[C@H]3[C@H]1C5 [Morphine]	–	–	–	–	a good analgesic effect on the inflammatory pain mode in mice, but the effect cannot be maintained for a long term	did not have an effect of reducing the sole-swelling degree in mice
